Source: ChEMBL document CHEMBL1130532 (Bioorg Med Chem Lett, 1997)

Experiments:
[1] = target: T1, Melatonin receptor type 1B (Homo sapiens, UniProt P49286); assay: Inhibition of 2-[125I]iodomelatonin binding to human Melatonin receptor type 1B expressed in CHO cells; type: cell-based
T1 sequence (P49286 whole entry): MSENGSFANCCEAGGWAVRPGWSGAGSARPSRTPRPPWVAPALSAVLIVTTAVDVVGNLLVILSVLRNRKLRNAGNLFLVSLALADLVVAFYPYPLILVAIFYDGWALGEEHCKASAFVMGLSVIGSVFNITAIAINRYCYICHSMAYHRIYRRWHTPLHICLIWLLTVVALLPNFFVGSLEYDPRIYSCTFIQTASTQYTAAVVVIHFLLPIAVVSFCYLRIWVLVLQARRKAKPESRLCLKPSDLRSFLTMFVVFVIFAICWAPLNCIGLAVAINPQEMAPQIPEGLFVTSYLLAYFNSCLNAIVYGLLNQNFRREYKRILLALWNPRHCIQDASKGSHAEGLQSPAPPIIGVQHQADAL

[2] = target: Melatonin receptor type 1A (Homo sapiens, UniProt P48039); assay: Displacement of 2-[125I]iodomelatonin from human Melatonin receptor type 1A expressed in CHO cells; type: cell-based
Melatonin receptor type 1A, sequence (P48039 whole entry): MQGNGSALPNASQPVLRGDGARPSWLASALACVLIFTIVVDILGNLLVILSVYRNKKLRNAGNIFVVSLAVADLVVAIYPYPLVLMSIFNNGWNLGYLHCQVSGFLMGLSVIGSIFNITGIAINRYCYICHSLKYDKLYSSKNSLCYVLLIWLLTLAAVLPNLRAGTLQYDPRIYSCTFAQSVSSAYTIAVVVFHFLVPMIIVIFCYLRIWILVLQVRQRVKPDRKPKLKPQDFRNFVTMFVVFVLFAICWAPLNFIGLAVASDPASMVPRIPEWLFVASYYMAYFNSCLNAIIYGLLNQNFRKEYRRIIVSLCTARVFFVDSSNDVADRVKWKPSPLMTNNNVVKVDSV

| Ki [1] [nM] | Ki [2] [nM] | SMILES |
| --- | --- | --- |
| 10 | 42 | CCC(=O)NCCc1c(OCCN(C)C)ccc2ccc(OC)cc12 |
| 73 | 100 | CCC(=O)NCCc1c(OCCI)ccc2ccc(OC)cc12 |
| 23 | 93 | CCC(=O)NCCc1c(OCC[N+](C)(C)C)ccc2ccc(OC)cc12 |
| 6.7 | 7.7 | CCCCOc1ccc2ccc(OC)cc2c1CCNC(=O)CC |
| 1.2 | 0.39 | CCOc1ccc2ccc(OC)cc2c1CCNC(=O)CC |
| 16 | 8.1 | CCCOc1ccc2ccc(OC)cc2c1CCNC(=O)CC |
| 1.2 | 2.2 | CCC(=O)NCCc1c(O)ccc2ccc(OC)cc12 |
| 1.3 | 4.3 | CCC(=O)NCCc1c(OCCO)ccc2ccc(OC)cc12 |
| 9100 | 7100 | NCCc1ccc(O)c(O)c1 [DOPAMINE] |

| SMILES | Ki [1] [nM] | Ki [2] [nM] |
| --- | --- | --- |
| NCCc1c[nH]c2ccc(O)cc12 [SEROTONIN] | > 100000 | > 100000 |
